Key:
NEP enzyme = target: T1, NEP enzyme (Homo sapiens, UniProt P08473); experiment: NEP enzyme inhibition assay (fluorogenic peptide substrate); assay type: biochemical; settings: values given as lower bounds; * = prodrugs, may not exhibit NEP activity in an in vitro assay; read-out: NEP pIC50 (converted)
T1 construct: purchased R&D Systems, Minneapolis, Minn; 1182-ZN
Procedure, shortened: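 Recombinant human NEP was run with Mca-BK2 (10 μM) at room temperature in Tris buffer with 1 μM Zn. Compounds (10 μM–20 pM, 12 points) were pre-equilibrated 10 min, then reacted 20 min and acid-stopped. Fluorescence ex 320/em 405 nm, one-site competition fit gives pIC50. Thiol compounds may be pre-treated with 400 μM TCEP.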

human AT1 receptor = target: T2, human AT1 receptor (Homo sapiens, UniProt P30556); experiment: AT1 radioligand binding assay (displacement of [Eu]AngII); settings: membranes of CHO-K1 cells expressing cloned human AT1 receptor; values given as lower bounds; read-out: AT1 pKi (converted)
T2 construct: expressed in transfected cells; host or cells: CHO-K1
T2 sequence (P30556 1-359): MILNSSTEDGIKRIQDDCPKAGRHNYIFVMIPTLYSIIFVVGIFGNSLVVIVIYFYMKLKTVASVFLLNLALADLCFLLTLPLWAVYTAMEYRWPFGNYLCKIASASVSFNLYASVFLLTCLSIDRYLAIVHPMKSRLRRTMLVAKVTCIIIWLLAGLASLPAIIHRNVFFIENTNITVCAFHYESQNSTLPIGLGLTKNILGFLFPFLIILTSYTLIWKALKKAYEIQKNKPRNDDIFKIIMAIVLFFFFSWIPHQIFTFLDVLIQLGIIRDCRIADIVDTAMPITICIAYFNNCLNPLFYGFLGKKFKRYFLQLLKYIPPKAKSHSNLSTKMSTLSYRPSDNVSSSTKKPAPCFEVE
Procedure, shortened: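 Membranes from CHO-K1 cells stably expressing cloned human AT1, 0.2 μg protein, in 50 mM Tris/HCl pH 7.5, 5 mM MgCl2, 0.025% BSA. Compounds displaced [Eu]AngII over 120 min in the dark at room temperature or 37° C; filter-bound TRF read. Nonspecific binding with 10 μM angiotensin II; IC50 converted to Ki via Cheng-Prusoff, reported as pKi.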

T1 sequence (P08473 52-750 limits assumed): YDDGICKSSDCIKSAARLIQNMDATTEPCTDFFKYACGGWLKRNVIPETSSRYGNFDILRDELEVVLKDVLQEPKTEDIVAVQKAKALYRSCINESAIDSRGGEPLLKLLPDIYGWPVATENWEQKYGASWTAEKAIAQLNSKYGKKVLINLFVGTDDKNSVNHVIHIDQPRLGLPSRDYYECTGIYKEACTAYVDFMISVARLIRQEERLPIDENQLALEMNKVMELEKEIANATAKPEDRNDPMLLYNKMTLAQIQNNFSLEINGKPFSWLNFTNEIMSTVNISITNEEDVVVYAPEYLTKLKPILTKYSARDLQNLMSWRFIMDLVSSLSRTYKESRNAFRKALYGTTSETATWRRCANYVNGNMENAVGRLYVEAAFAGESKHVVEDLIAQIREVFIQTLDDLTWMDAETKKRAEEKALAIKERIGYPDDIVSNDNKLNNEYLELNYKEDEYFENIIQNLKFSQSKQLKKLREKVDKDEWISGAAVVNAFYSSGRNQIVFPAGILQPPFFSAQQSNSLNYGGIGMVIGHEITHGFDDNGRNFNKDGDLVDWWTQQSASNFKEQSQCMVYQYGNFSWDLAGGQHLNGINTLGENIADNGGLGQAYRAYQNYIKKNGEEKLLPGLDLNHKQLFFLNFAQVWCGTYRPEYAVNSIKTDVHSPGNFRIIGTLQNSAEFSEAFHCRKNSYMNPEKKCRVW

IC50 (NEP enzyme) [nM]	Ki (human AT1 receptor) [nM]	Structure (SMILES)
≤ 100	≤ 10	CCCc1cc(C(=O)N[C@@H](CC(=O)NO)Cc2ccccc2)nn1Cc1ccc(-c2ccccc2S(=O)(=O)NC(C)=O)cc1F [Example 6-16, 1-(2′-Acetylsulfamoyl-3-fluorobiphenyl-4-ylmethyl)-5-propyl-1H-pyrazole-3-carboxylic acid ((R)-1-hydroxycarbamoylmethyl-2-phenylethyl)amide]
≤ 100	≤ 100	CCCc1cc(C(=O)N[C@H](Cc2ccccc2)[C@@H](O)C(=O)O)nn1Cc1ccc(-c2ccccc2S(=O)(=O)NC(C)=O)cn1 [Example 15-3, (2R,3R)-3-({1-[5-(2-Acetylsulfamoylphenyl)pyridin-2-ylmethyl]-5-propyl-1H-pyrazole-3-carbonyl}amino)-2-hydroxy-4-phenylbutyric acid]
≤ 1000	≤ 10	CCCc1cc(C(=O)N[C@@H](CC(=O)O)Cc2ccccc2)nn1Cc1ccc(-c2ccccc2S(=O)(=O)NC(C)=O)nc1 [Example 14-15, (R)-3-({1-[6-(2-Acetylsulfamoylphenyl)-pyridin-3-ylmethyl]-5-propyl-1H-pyrazole-3-carbonyl}-amino)-4-phenylbutyric acid]
≤ 100	≤ 10	CCCc1cc(C(=O)N[C@H](Cc2ccccc2)CN(O)C=O)nn1Cc1ccc(-c2ccccc2S(=O)(=O)NC(C)=O)cc1 [Example 6-13, 1-(2′-Acetylsulfamoyl-biphenyl-4-ylmethyl)-5-propyl-1H-pyrazole-3-carboxylic acid [(R)-1-benzyl-2-(formyl-hydroxy-amino)-ethyl]amide]
≤ 1000	≤ 10	CCCc1cc(C(=O)N[C@@H](CC(=O)O)Cc2ccccc2Cl)nn1Cc1ccc(-c2ccccc2S(=O)(=O)NC(C)=O)cc1 [Example 6-27, (R)-3-{[1-(2′-Acetylsulfamoylbiphenyl-4-ylmethyl)-5-propyl-1H-pyrazole-3-carbonyl]amino}-4-(2-chlorophenyl)butyric acid]
≤ 100	≤ 10	CCCc1cc(C(=O)N[C@H](Cc2ccccc2)[C@@H](O)C(=O)O)nn1Cc1ccc(-c2ccccc2S(=O)(=O)NC(C)=O)cc1 [Example 4, (2R,3R)-3-(1-((2′-(N-Acetylsulfamoyl)biphenyl-4-yl)methyl)-5-propyl-1H-pyrazole-3-carboxamido)-2-hydroxy-4-phenylbutanoic Acid]
≤ 1000	≤ 10	CCCc1cc(C(=O)N[C@@H](CC(=O)O)Cc2ccccc2C(F)(F)F)nn1Cc1ccc(-c2ccccc2S(=O)(=O)NC(C)=O)cc1 [Example 6-25, (R)-3-{[1-(2′-Acetylsulfamoylbiphenyl-4-ylmethyl)-5-propyl-1H-pyrazole-3-carbonyl]amino}-4-(2-trifluoromethylphenyl)butyric acid]

The next lines start with the compound.

Structure (SMILES)	IC50 (NEP enzyme) [nM]	Ki (human AT1 receptor) [nM]
CCCc1cc(C(=O)N[C@@H](CC(=O)O)Cc2ccccc2Cl)nn1Cc1cnc(-c2ccccc2-c2nnn[nH]2)nc1 [Example 18, (R)-4-(2-Chlorophenyl)-3-[(5-propyl-1-{2-[2-(1H-tetrazol-5-yl)phenyl]pyrimidin-5-ylmethyl}-1H-pyrazole-3-carbonyl)amino]butyric acid]	≤ 1000	≤ 100
CCCc1cc(C(=O)N[C@H](Cc2ccccc2)[C@@H](O)C(=O)O)nn1Cc1ccc(-c2ccccc2-n2nn[nH]c2=O)cc1 [Example 16-3, (2R,3R)-2-Hydroxy-3-({1-[2′-(5-oxo-4,5-dihydrotetrazol-1-yl)-biphenyl-4-ylmethyl]-5-propyl-1H-pyrazole-3-carbonyl}amino)-4-phenylbutyric acid]	≤ 100	≤ 10
CCCc1cc(C(=O)N[C@@H](CS)Cc2ccccc2)nn1Cc1ccc(-c2ccccc2-c2nnn[nH]2)cc1 [Example 3-6, 5-Propyl-1-[2′-(1H-tetrazol-5-yl)biphenyl-4-ylmethyl]-1H-pyrazole-3-carboxylic acid ((R)-1-benzyl-2-mercaptoethyl)amide]	≤ 100	≤ 10
CCCc1cc(C(=O)N[C@@H](CC(=O)O)Cc2ccccc2C(F)(F)F)nn1Cc1ccc(-c2ccccc2-c2nnn[nH]2)cc1 [Example 3-36, (R)-3-({5-Propyl-1-[2′-(1H-tetrazol-5-yl)-biphenyl-4-ylmethyl]-1H-pyrazole-3-carbonyl}amino)-4-(2-trifluoromethylphenyl)butyric acid]	≤ 1000	≤ 100
CCCc1cc(C(=O)N[C@@H](CC(=O)O)Cc2ccccc2Cl)nn1Cc1ccc(-c2ccccc2-c2nnn[nH]2)cc1 [Example 3-34, (R)-4-(2-Chlorophenyl)-3-({5-propyl-1-[2′-(1H-tetrazol-5-yl)biphenyl-4-ylmethyl]-1H-pyrazole-3-carbonyl}amino)butyric acid]	≤ 10000	≤ 10
CCCc1cc(C(=O)N[C@@H](CC(=O)O)Cc2ccccc2)nn1Cc1ccc(-c2ccccc2-n2nn[nH]c2=O)cc1 [Example 16-4, (R)-3-({1-[2′-(5-Oxo-4,5-dihydrotetrazol-1-yl)biphenyl-4-ylmethyl]-5-propyl-1H-pyrazole-3-carbonyl}amino)-4-phenylbutyric acid]	≤ 1000	≤ 10
CCCc1cc(C(=O)N[C@H](Cc2ccccc2)[C@@H](O)C(=O)O)nn1Cc1ccc(-c2ccccc2S(=O)(=O)NC(=O)C(C)(C)N)cc1 [Example 7-19, (2R,3R)-3-({1-[2′-(2-Amino-2-methylpropionylsulfamoyl)biphenyl-4-ylmethyl]-5-propyl-1H-pyrazole-3-carbonyl}amino)-2-hydroxy-4-phenylbutyric acid]	≤ 1000	≤ 100
CCCc1cc(C(=O)N[C@H](Cc2ccccc2)[C@@H](O)C(=O)O)nn1Cc1ccc(-c2ccccc2C(=O)O)cc1 [Example 9-5, 4′-[3-((1R,2R)-1-Benzyl-2-carboxy-2-hydroxyethylcarbamoyl)-5-propylpyrazol-1-ylmethyl]biphenyl-2-carboxylic acid]	≤ 100	≤ 100
CCCc1cc(C(=O)N[C@H](Cc2ccccc2)[C@@H](O)C(=O)O)nn1Cc1ccc(-c2ccccc2S(=O)(=O)NC(=O)c2ccno2)cc1 [Example 7-6, (2R,3R)-2-Hydroxy-3-[(1-{2′-[(isoxazole-5-carbonyl)sulfamoyl]biphenyl-4-ylmethyl}-5-propyl-1H-pyrazole-3-carbonyl)amino]-4-phenylbutyric acid]	≤ 1000	≤ 10
